In ChEMBL document CHEMBL5233242, “Dihydrofolate reductase inhibitors for use as antimicrobial agents” (Eur J Med Chem, 2020):
In brackets after ≈: the same amount, converted by molar mass.

What was measured:
[1] = system: Mycobacterium tuberculosis; assay: Antibacterial activity against multi drug-resistant Mycobacterium tuberculosis 365; assay type: functional
[2] = system: Mycobacterium tuberculosis; assay: Antibacterial activity against extensively drug-resistant Mycobacterium tuberculosis 5; assay type: functional

Row | SMILES | MIC [1] [µM] | MIC [2] [µM]
1 | CCc1nc(N)nc(N)c1C#C[C@H](C)c1cc(OC)cc(-c2ccc(C(=O)O)cc2)c1 | < 0.072 | 0.6 (≈ 0.25 µg/mL)
2 | CCc1nc(N)nc(N)c1C#CCc1cc(OC)cc(-c2ccc(C(=O)O)cc2)c1 | 0.311 (≈ 0.125 µg/mL) | 4.97 (≈ 2 µg/mL)
